In PubChem BioAssay AID330 (DTP/NCI, 2004):
Several values for one entry are separate records, joined by “and”; a condition that tells them apart may be missing. Identical values can stand only once. Inconclusive results and toxic doses are left out. How the source made its calls: active means survival T/C of 150% or more; inactive means T/C below 125% in these data.

Tested on: P388 leukemia ip, CD2F1 mice, survival T/C
Assay: NCI In Vivo Anticancer Drug Screen. Data for tumor model P388 Leukemia (intraperitoneal) in CD2F1 (CDF1) mice
Settings: endpoint: median survival time, higher = longer survival
Protocol: The antitumor activity of compounds was measured in mice bearing transplantable tumors. Survival or tumor size were measured and the results are expressed as the measurement made in the treated group (T) divided by the measurement made in the vehicle treated control group (C). The tumor model used in this assay is P388 Leukemia (intraperitoneal) in CD2F1 (CDF1) mice

[1] = dose: 60.0 mg/kg/injection, schedule: Q01DX005 (ip), vehicle: saline with Tween-80
[2] = dose: 50.0 mg/kg/injection, schedule: Q01DX005 (ip), vehicle: saline with Tween-80
[3] = dose: 100.0 mg/kg/injection, schedule: Q01DX005 (ip), vehicle: saline with Tween-80
[4] = dose: 200.0 mg/kg/injection, schedule: Q01DX005 (ip), vehicle: saline with Tween-80
[5] = dose: 100.0 mg/kg/injection, schedule: Q04DX003 (ip), vehicle: saline with Tween-80
[6] = dose: 120.0 mg/kg/injection, schedule: Q01DX005 (ip), vehicle: saline with Tween-80
[7] = dose: 240.0 mg/kg/injection, schedule: Q01DX005 (ip), vehicle: saline with Tween-80
[8] = dose: 100.0 mg/kg/injection, schedule: Q01DX009 (ip), vehicle: saline with Tween-80
[9] = dose: 200.0 mg/kg/injection, schedule: Q01DX009 (ip), vehicle: saline with Tween-80
[10] = dose: 50.0 mg/kg/injection, schedule: Q01DX009 (ip), vehicle: Klucel (hydroxypropylcellulose) (HPC)
[11] = dose: 100.0 mg/kg/injection, schedule: Q01DX009 (ip), vehicle: Klucel (hydroxypropylcellulose) (HPC)
[12] = dose: 200.0 mg/kg/injection, schedule: Q01DX009 (ip), vehicle: Klucel (hydroxypropylcellulose) (HPC)
[13] = dose: 6.25 mg/kg/injection, schedule: Q01DX009 (ip), vehicle: saline with Tween-80
[14] = dose: 50.0 mg/kg/injection, schedule: Q01DX009 (ip), vehicle: saline with Tween-80

Measured: T/C

O=C(O)C(c1ccccc1)N1C(=O)C(Cl)=C(Cl)C1=O (stereo not drawn)
inactive: dose: 15.0 mg/kg/injection, schedule: Q01DX005 (ip), vehicle: saline with Tween-80 94 % of control | dose: 30.0 mg/kg/injection, schedule: Q01DX005 (ip), vehicle: saline with Tween-80 100 % of control | [1] 103 % of control and 112 % of control

COCCCN1CNC(=S)NC1
inactive: [2] 101 % of control | [3] 100 % of control | [4] 101 % of control

COc1cccc2c1C(=O)c1c(O)c3c(c(O)c1C2=O)CC(O)(C(C)=O)CC3OC1CC(NCC2(O)OCC(O)C(O)C2O)C(O)C(C)O1 (stereo not drawn)
inactive: dose: 3.13 mg/kg/injection, schedule: Q04DX003 (ip), vehicle: water 119 % of control | dose: 6.25 mg/kg/injection, schedule: Q04DX003 (ip), vehicle: water 117 % of control | dose: 12.5 mg/kg/injection, schedule: Q04DX003 (ip), vehicle: water 119 % of control | dose: 25.0 mg/kg/injection, schedule: Q04DX003 (ip), vehicle: water 118 % of control | dose: 200.0 mg/kg/injection, schedule: Q04DX003 (ip), vehicle: water 99 % of control

O=C1c2cccc3cc([N+](=O)[O-])cc(c23)C(=O)N1Cc1cccnc1
inactive: dose: 6.25 mg/kg/injection, schedule: Q01DX005 (ip), vehicle: saline with Tween-80 100 % of control | dose: 12.5 mg/kg/injection, schedule: Q01DX005 (ip), vehicle: saline with Tween-80 96 % of control | dose: 25.0 mg/kg/injection, schedule: Q01DX005 (ip), vehicle: saline with Tween-80 92 % of control | [3] 92 % of control | [4] 101 % of control

C[N+](C)(Cn1ncc2ccc([N+](=O)[O-])cc21)Cn1ncc2ccc([N+](=O)[O-])cc21
inactive: dose: 12.5 mg/kg/injection, schedule: Q04DX003 (ip), vehicle: saline with Tween-80 100 % of control | dose: 25.0 mg/kg/injection, schedule: Q04DX003 (ip), vehicle: saline with Tween-80 97 % of control | dose: 50.0 mg/kg/injection, schedule: Q04DX003 (ip), vehicle: saline with Tween-80 92 % of control | [5] 96 % of control

O=C(CSC(=S)N1CCCCC1)c1ccccc1
inactive: dose: 12.5 mg/kg/injection, schedule: Q01DX009 (ip), vehicle: distilled water + Tween-80 95 % of control | dose: 25.0 mg/kg/injection, schedule: Q01DX009 (ip), vehicle: distilled water + Tween-80 101 % of control | dose: 50.0 mg/kg/injection, schedule: Q01DX009 (ip), vehicle: distilled water + Tween-80 100 % of control | dose: 100.0 mg/kg/injection, schedule: Q01DX009 (ip), vehicle: distilled water + Tween-80 101 % of control | dose: 200.0 mg/kg/injection, schedule: Q01DX009 (ip), vehicle: distilled water + Tween-80 99 % of control

FC(F)(F)C1=C(C(F)(F)F)OP2(Oc3ccccc3)(O1)Oc1ccccc1O2
inactive: dose: 25.0 mg/kg/injection, schedule: Q04DX003 (ip), vehicle: suspension in saline 102 % of control | dose: 50.0 mg/kg/injection, schedule: Q04DX003 (ip), vehicle: suspension in saline 101 % of control | dose: 100.0 mg/kg/injection, schedule: Q04DX003 (ip), vehicle: suspension in saline 97 % of control

O=[N+]([O-])c1cccc(-c2ccccc2)c1Br
inactive: dose: 37.5 mg/kg/injection, schedule: Q04DX003 (ip), vehicle: saline with Tween-80 100 % of control | dose: 75.0 mg/kg/injection, schedule: Q04DX003 (ip), vehicle: saline with Tween-80 100 % of control | dose: 150.0 mg/kg/injection, schedule: Q04DX003 (ip), vehicle: saline with Tween-80 100 % of control

CCOCCOCCOC(C)Oc1ccc(Cl)cc1C (stereo not drawn)
inactive: [1] 90 % of control | [6] 92 % of control | [7] 98 % of control

COc1c(C)cc([N+](=O)[O-])c(C)c1[N+](=O)[O-]
inactive: dose: 50.0 mg/kg/injection, schedule: Q01DX001 (ip), vehicle: Klucel (hydroxypropylcellulose) (HPC) 92 % of control | dose: 100.0 mg/kg/injection, schedule: Q01DX001 (ip), vehicle: Klucel (hydroxypropylcellulose) (HPC) 93 % of control | dose: 200.0 mg/kg/injection, schedule: Q01DX001 (ip), vehicle: Klucel (hydroxypropylcellulose) (HPC) 90 % of control

c1ccc2c(c1)Nc1ccncc1S2
inactive: [8] 100 % of control | [5] 100 % of control | [9] 100 % of control | dose: 200.0 mg/kg/injection, schedule: Q04DX003 (ip), vehicle: saline with Tween-80 100 % of control | dose: 400.0 mg/kg/injection, schedule: Q01DX009 (ip), vehicle: saline with Tween-80 100 % of control

N=C1N=Nc2nc(C(C(=O)c3cccs3)c3nc4n(c3O)C(=N)N=N4)c(O)n21 (stereo not drawn)
inactive: [1] 97 % of control | [6] 100 % of control | [7] 106 % of control

Cc1ccc2c(I)cc(I)c(O)c2n1
inactive: [10] 107 % of control | [11] 102 % of control | [12] 100 % of control

O=C1C=CC(=O)C2=C1CCCC2
inactive: dose: 2.0 mg/kg/injection, schedule: Q01DX009 (ip), vehicle: saline with Tween-80 100 % of control | dose: 2.9 mg/kg/injection, schedule: Q01DX009 (ip), vehicle: saline with Tween-80 100 % of control | dose: 3.12 mg/kg/injection, schedule: Q01DX009 (ip), vehicle: saline with Tween-80 100 % of control | dose: 4.5 mg/kg/injection, schedule: Q01DX009 (ip), vehicle: saline with Tween-80 100 % of control | [13] 100 % of control | dose: 6.5 mg/kg/injection, schedule: Q01DX009 (ip), vehicle: saline with Tween-80 100 % of control | dose: 12.5 mg/kg/injection, schedule: Q01DX009 (ip), vehicle: saline with Tween-80 102 % of control

O=C1C=C(c2ccccc2)CC1
inactive: dose: 25.0 mg/kg/injection, schedule: Q01DX009 (ip), vehicle: saline with Tween-80 88 % of control | [14] 100 % of control | [8] 111 % of control

CCSC(C(OC(C)=O)C(OC(C)=O)C(OC(C)=O)C(COC(C)=O)OC(C)=O)n1cnc2c(Cl)ncnc21 (stereo not drawn)
inactive: [2] 100 % of control | [3] 90 % of control | [4] 96 % of control

CCOc1ccc2c(ccc(/C=C\c3cc(C)c4cccnc4c3O)[n+]2C)c1
inactive: dose: 3.13 mg/kg/injection, schedule: Q01DX009 (ip), vehicle: saline with Tween-80 121 % of control | [13] 121 % of control

COC(=O)C(COS(=O)(=O)c1ccc(C)cc1)NC(=O)OCc1ccc(OC)cc1 (stereo not drawn)
inactive: dose: 12.5 mg/kg/injection, schedule: Q01DX009 (ip), vehicle: water 98 % of control | dose: 25.0 mg/kg/injection, schedule: Q01DX009 (ip), vehicle: water 95 % of control | dose: 50.0 mg/kg/injection, schedule: Q01DX009 (ip), vehicle: water 89 % of control | dose: 100.0 mg/kg/injection, schedule: Q01DX009 (ip), vehicle: water 91 % of control | dose: 200.0 mg/kg/injection, schedule: Q01DX009 (ip), vehicle: water 91 % of control

c1ccc(-n2nc3c(c2-c2cccnc2)Cc2ccccc2-3)cc1
inactive: [2] 101 % of control | [3] 100 % of control | [4] 98 % of control

O=C1C(Cl)=C(Sc2nnc3c4ccccc4c4ccccc4c3n2)C(=O)c2ccccc21
inactive: [14] 100 % of control | [8] 91 % of control | [9] 99 % of control

O=C(CCl)c1ccc2ccc3c(c2c1)Nc1ccccc1S3
inactive: [10] 96 % of control | [11] 99 % of control | [12] 93 % of control

CCCCC[C@@H]1CCCC2C1CCC(CCCCCO)N2C(=O)OCC(Cl)(Cl)Cl (stereo partly drawn)
inactive: [2] 100 % of control | [3] 106 % of control | [4] 100 % of control

CCC1=NO[C@@H](C(=O)OCc2ccccc2)[C@H]1C
inactive: [1] 113 % of control | [6] 103 % of control | [7] 95 % of control

COc1ccc(C(=O)OC2(C)CC(C)(C)N=N2)cc1 (stereo not drawn)
inactive: dose: 12.5 mg/kg/injection, schedule: Q01DX009 (ip), vehicle: other 105 % of control | dose: 25.0 mg/kg/injection, schedule: Q01DX009 (ip), vehicle: other 108 % of control | dose: 50.0 mg/kg/injection, schedule: Q01DX009 (ip), vehicle: other 108 % of control | dose: 100.0 mg/kg/injection, schedule: Q01DX009 (ip), vehicle: other 108 % of control | dose: 200.0 mg/kg/injection, schedule: Q01DX009 (ip), vehicle: other 108 % of control
